Read-outs that look alike come from different tables or passages of the source.
Experiment: Study TMX-99-001: febuxostat plasma pharmacokinetics
Type: in vivo, human
Set-up: AUC24/Dose: unit not given here
Conditions: mean; for AUC: following AM and PM dose

Tmax (IR 30 mg BID): 0.70 h | Tmin (IR 30 mg BID): 24.00 h | AUC24/Dose (IR 30 mg BID, AM + PM dose (60 mg)): 103.73 | Cmax (IR 30 mg BID, Cmax following AM dose): 1488.00 ng/mL | Cmax/dose (IR 30 mg BID, Cmax following AM dose/AM dose (30 mg)): 49.60 ng/mL/mg | Cmin (IR 30 mg BID, terminal phase of PM dose): 59.58 ng/mL | AUC24/Dose (IR 30 mg single dose): 84.16 | Cmax (IR 30 mg single dose): 1283.54 ng/mL | Cmax/dose (IR 30 mg single dose): 42.78 ng/mL/mg | Tmax (IR 30 mg single dose): 0.89 h | Tmin (IR 30 mg single dose): 16.89 h | Cmin (IR 30 mg single dose, terminal phase at or before 24 hours): 17.50 ng/mL | AUC4-24 (IR 40 mg single dose): 941.11 ng·h/mL | AUC24 (IR 40 mg single dose): 4295.13 ng·h/mL | AUC24/Dose (IR 40 mg single dose): 107.38 | Cmax (IR 40 mg single dose): 1822.11 ng/mL | Cmax/dose (IR 40 mg single dose): 45.55 ng/mL/mg | Tmax (IR 40 mg single dose): 1.19 h | Tmin (IR 40 mg single dose): 21.00 h | Cmin (IR 40 mg single dose, terminal phase at or before 24 hours): 15.13 ng/mL | AUC0-4 (IR 50 mg single dose): 3116.06 ng·h/mL | AUC24 (IR 50 mg single dose): 4374.36 ng·h/mL | AUC24/Dose (IR 50 mg single dose): 87.49 | Cmax (IR 50 mg single dose): 1791.71 ng/mL | Cmax/dose (IR 50 mg single dose): 35.83 ng/mL/mg | Tmax (IR 50 mg single dose): 1.14 h | Tmin (IR 50 mg single dose): 22.00 h | Cmin (IR 50 mg single dose, terminal phase at or before 24 hours): 15.98 ng/mL | AUC24 (IR 70 mg single dose): 6948.21 ng·h/mL | AUC24/Dose (IR 70 mg single dose): 99.26 | Cmax (IR 70 mg single dose): 2689.91 ng/mL | Cmax/dose (IR 70 mg single dose): 38.43 ng/mL/mg | Tmax (IR 70 mg single dose): 1.10 h | Tmin (IR 70 mg single dose): 23.20 h | Cmin (IR 70 mg single dose, terminal phase at or before 24 hours): 23.81 ng/mL | AUC0-4 (IR 90 mg single dose): 6893.00 ng·h/mL | AUC24/Dose (IR 90 mg single dose): 104.36 | Cmax (IR 90 mg single dose): 4061.63 ng/mL | Cmax/dose (IR 90 mg single dose): 45.13 ng/mL/mg | Tmin (IR 90 mg single dose): 24.00 h | Cmin (IR 90 mg single dose, terminal phase at or before 24 hours): 27.53 ng/mL | AUC24 (IR 120 mg single dose): 11959.93 ng·h/mL | AUC24/Dose (IR 120 mg single dose): 99.67 | Cmax (IR 120 mg single dose): 5307.58 ng/mL | Cmax/dose (IR 120 mg single dose): 44.23 ng/mL/mg | Tmax (IR 120 mg single dose): 1.11 h | Tmin (IR 120 mg single dose): 24.00 h | Cmin (IR 120 mg single dose, terminal phase at or before 24 hours): 41.49 ng/mL | AUC24 (IR 160 mg single dose): 22282.12 ng·h/mL | AUC24/Dose (IR 160 mg single dose): 139.26 | Cmax (IR 160 mg single dose): 8771.07 ng/mL | Cmax/dose (IR 160 mg single dose): 54.82 ng/mL/mg | Tmax (IR 160 mg single dose): 0.80 h | Tmin (IR 160 mg single dose): 22.80 h | Cmin (IR 160 mg single dose, terminal phase at or before 24 hours): 79.88 ng/mL | AUC24 (IR 180 mg single dose): 23954.54 ng·h/mL | AUC24/Dose (IR 180 mg single dose): 133.08 | Cmax (IR 180 mg single dose): 8048.76 ng/mL | Cmax/dose (IR 180 mg single dose): 44.72 ng/mL/mg | Tmin (IR 180 mg single dose): 24.00 h | Cmin (IR 180 mg single dose, terminal phase at or before 24 hours): 75.73 ng/mL | AUC24 (IR 240 mg single dose): 34976.26 ng·h/mL | AUC24/Dose (IR 240 mg single dose): 145.73 | Cmax (IR 240 mg single dose): 11263.03 ng/mL | Cmax/dose (IR 240 mg single dose): 46.93 ng/mL/mg | Tmax (IR 240 mg single dose): 0.94 h | Tmin (IR 240 mg single dose): 24.00 h | Cmin (IR 240 mg single dose, terminal phase at or before 24 hours): 71.30 ng/mL | MRT inf (human, plasma, oral, 30 mg, IR 30 mg BID): 18.6 h | AUC (human, plasma, oral, 30 mg, IR 30 mg BID, read-out: AUC4-24): 3980 ng·h/mL | AUC (human, plasma, oral, 30 mg, IR 30 mg BID, read-out: AUC24): 6220 ng·h/mL | partial AUC from 0 to 4 hours (human, plasma, oral, 30 mg, IR 30 mg BID, following AM dose, read-out: AUC0-4): 2240 ng·h/mL
SMILES: Cc1nc(-c2ccc(OCC(C)C)c(C#N)c2)sc1C(=O)O [Febuxostat, 2-[3-cyano-4-(2-methylpropoxy)phenyl]-4-methylthiazole-5-carboxylic acid]
